Toxic doses and inconclusive results are not listed. The calls were made as follows: active = survival T/C of 150% or more; inactive = T/C below 125% in these data.
System: CD2F1 mice, L1210 leukemia ip, survival T/C
Test: NCI In Vivo Anticancer Drug Screen. Data for tumor model L1210 Leukemia (intraperitoneal) in CD2F1 (CDF1) mice
Conditions: endpoint: mean survival time, higher = longer survival
Outline: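 Implant tumor; dose compound or vehicle; measure endpoint in both groups; report treated divided by control.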

[1] = dose: 100.0 mg/kg/injection, schedule: Q01DX001 (ip), vehicle: saline with Tween-80
[2] = dose: 200.0 mg/kg/injection, schedule: Q01DX001 (ip), vehicle: saline with Tween-80
[3] = dose: 400.0 mg/kg/injection, schedule: Q01DX001 (ip), vehicle: saline with Tween-80

Measured: T/C

O=[N+]([O-])c1ccc(N/N=C(/C(=N/Nc2ccc([N+](=O)[O-])cc2)c2ccccc2)c2ccccc2)cc1
inactive: dose: 12.5 mg/kg/injection, schedule: Q01DX009 (ip), vehicle: other 104 % of control | dose: 25.0 mg/kg/injection, schedule: Q01DX009 (ip), vehicle: other 101 % of control | dose: 50.0 mg/kg/injection, schedule: Q01DX009 (ip), vehicle: other 102 % of control | dose: 100.0 mg/kg/injection, schedule: Q01DX009 (ip), vehicle: other 93 % of control | dose: 100.0 mg/kg/injection, schedule: Q04DX003 (ip), vehicle: saline with Tween-80 93 % of control | dose: 200.0 mg/kg/injection, schedule: Q01DX009 (ip), vehicle: other 93 % of control | dose: 200.0 mg/kg/injection, schedule: Q04DX003 (ip), vehicle: saline with Tween-80 88 % of control | dose: 400.0 mg/kg/injection, schedule: Q04DX003 (ip), vehicle: saline with Tween-80 88 % of control

CC1CC([O-])=N/[N+]1=C\c1ccccc1 (stereo not given)
inactive: dose: 100.0 mg/kg/injection, schedule: Q04DX003 (ip), vehicle: saline 101 % of control | dose: 200.0 mg/kg/injection, schedule: Q04DX003 (ip), vehicle: saline 96 % of control | dose: 400.0 mg/kg/injection, schedule: Q04DX003 (ip), vehicle: saline 94 % of control

O=C(Cc1ccccn1)Cc1ccccn1
inactive: [1] 106 % of control | dose: 100.0 mg/kg/injection, schedule: Q04DX002 (ip), vehicle: saline with Tween-80 100 % of control | [2] 96 % of control | dose: 200.0 mg/kg/injection, schedule: Q04DX002 (ip), vehicle: saline with Tween-80 100 % of control | [3] 106 % of control | dose: 400.0 mg/kg/injection, schedule: Q04DX002 (ip), vehicle: saline with Tween-80 104 % of control

CCOC(=O)NC(NC(=O)OCC)C(Cl)Cl
inactive: [1] 103 % of control | [2] 105 % of control | [3] 97 % of control
